Here are results for twelve compounds from patent publication US20260102428A1, “COMPOSITIONS AND METHODS FOR THE INHIBITION OF METHICILLIN RESISTANT STAPHYLOCOCCUS AUREUS” (priority 2022, published 2026).

One series relates to S. aureus JE2. It counts as cell-based, Staphylococcus aureus. Conditions: 0.25-4× MIC, daily passage 1:100.
Another series deals with MRSA strain USA300-LAC. The experiment in a line: Zn(II)/Cu-dependent antibiotic screening of the Selleckchem bioactives library (resazurin growth readout). It counts as cell-based, Staphylococcus aureus. Conditions: compound 10 μM, hit = growth reduced by at least 50%; for Activity class in Zn-dependent screening: with vs without 25 μM ZnSO4, 1×RPMI 1640; for Activity class in Cu-dependent screening: with vs without 25 μM CuSO4, 1×RPMI 1640.

Series [1] concerns erythromycin-resistant group A Streptococcus, methicillin-resistant Staphylococcus aureus, and vancomycin-resistant Enterococcus. Particulars: cited from earlier work.
For series [2] the following is noted: reported values; cited from earlier work.
Series [3] relates to clinical multidrug-resistant MRSA isolates. The experiment in a line: Minimal inhibitory concentration against clinical isolates (dose-response curves).
Procedure: Growth was determined after 20 h of incubation at 37° C. using A600 measurements as a readout. Percentage growth was calculated by normalizing the A600 measurements relative to that of the compound-untreated control of each metal condition. Data represent the mean±SEM (n=3 biological replicates, 3 technical replicates each). […] Data represent the mean±SEM (n=3 biological replicates, 3 technical replicates each).
All S. aureus strains utilized in this study were routinely cultured in Mueller-Hinton medium at 37° C. shaking at 180 rpm prior to transfer into experiment-specific media. […] Lastly, clinical multi-drug resistant MRSA strains were isolated, characterized for clinical drug resistance, de-identified, and obtained from UAB Laboratory Medicine.
The minimal inhibitory concentration (MIC) of the tested compounds was determined using dose-response curves as previously described. Briefly, each strain was cultured to mid-exponential phase in MH medium, as determined by OD600 measurement. S. aureus cultures were then normalized to an OD600 of 0.005 for transfer into the assay plates. Each strain was treated with compounds serially titrated in the assay medium in 96-well flat-bottom plastic plates with or without either CuSO4 or ZnSO4. Compound-untreated samples for each metal condition were used as negative controls. S. aureus were treated for 18-20 hours at 37° C. and 5% CO2. Following the treatment period, bacterial growth was determined by measuring the absorbance of each well at 600 nm using a Biotek Cytation 3 plate reader. Measurements were then background adjusted and normalized to either the untreated control or the metal only control.
The subject of series [4] is USA300-LAC. The experiment in a line: Minimal inhibitory concentration by dose-response curves (A600). It counts as cell-based, Staphylococcus aureus. Particulars: for Antibacterial activity (MIC) without metal: 1×RPMI 1640, no added metal.
The nature of series [5]: Binding constant determination by UV/Vis-absorption titration. The method, then:
Binding constants were determined using UV/Vis-absorption spectroscopy by titrating AVB with Cu(I), Cu(II), and Zn(II). Briefly, 1 mM AVB in 100% anhydrous DMSO was titrated in HEPES (4-(2-hydroxyethyl)-1-piperazineethanesulfonic acid) buffer (pH=7.2-7.4) with 800 μM CuBr, CuSO4, or ZnSO4 at the following concentrations: 0 μM, 25 μM, 50 μM, 75 μM, 100 μM, and 150 μM. Once the gradient of solutions was prepared, full spectrum UV/Vis-absorption spectroscopy was performed to detect characteristic spectral changes that occur as a consequence of metal cation binding. Binding constants were calculated by importing the spectra of individual titrations with each metal into the UV 1:1 Bindfit program.

The subject of series [6] is USA300-LAC. Particulars: ZnSO4 titrated against compound, 1×RPMI 1640.
The test system of another series is human cells. As to the kind of experiment: Eukaryotic toxicity assays, overall statement. The class given is cell-based. Particulars: 0.4-30 μM ± 15 μM Zn, 24 hours.
Where [7] appears, read: CuBr, HEPES buffer pH 7.2-7.4, UV 1:1 Bindfit.
Setting [8] is: CuSO4, HEPES buffer pH 7.2-7.4, UV 1:1 Bindfit.
The mark [9] stands for this setting: ZnSO4, HEPES buffer pH 7.2-7.4, UV 1:1 Bindfit.

Values joined by “and” are separate entries in the source; they are usually repeats but may differ in a detail not shown here. Equal values may be shown once. Where a name gives a salt, the structure may show the parent alone. Bridge positions count the residues as written; N and C are the ends. Square brackets hold non-standard residues; d marks the D form. Peptide text beside a SMILES is read from it. * marks the point of attachment. Ileψ(thiazoline)Cys = CC[C@H](C)[C@H](N)C1=N[C@H](C(=O)*)CS1; dOrn = NCCC[C@@H](N)C(=O)O

Consider `CO[C@H]1/C=C/O[C@@]2(C)Oc3c(C)c(O)c4c(O)c(c(/C=N/N5CCN(C)CC5)c(O)c4c3C2=O)NC(=O)/C(C)=C\C=C\[C@H](C)[C@H](O)[C@@H](C)[C@@H](O)[C@@H](C)[C@H](OC(C)=O)[C@@H]1C` [Rifampicin], for which the “Day from which resistant clones could be isolated” value in the series with S. aureus JE2 came out at 5 days.

On to `CC/C(=C(\c1ccccc1)c1ccc(OCCN(C)C)cc1)c1ccccc1` [tamoxifen], for which the “Activity class in Zn-dependent screening” value with MRSA strain USA300-LAC is listed as “Zn-activated”.

Consider `Clc1ccc(C(Cn2ccnc2)OCc2ccsc2Cl)c(Cl)c1` (stereo not shown) [tioconazole], for which the “Activity class in Zn-dependent screening” value in the series on MRSA strain USA300-LAC is given as “Zn-activated”.

With `Clc1ccccc1C(c1ccccc1)(c1ccccc1)n1ccnc1` [clotrimazole], the “Activity class in Zn-dependent screening” value in the series with MRSA strain USA300-LAC is listed as “Zn-activated”.

With `CN(C)Cc1ccc2c(Cl)cc(Cl)c(O)c2n1` [PTB2], the “Zinc concentrations required for antibacterial activity” value in [1] is 400 to 600 µM.

With `c1ccc(CN(CCN(Cc2ccccn2)Cc2ccccn2)Cc2ccccn2)nc1` [TPEN, N,N,N′,N′-tetrakis(2-pyridinylmethyl)-1,2-ethanediamine], the “KD of high-affinity metal chelators” value in series [2] is “picomolar to femtomolar range”.

For orientation: MIC means the smallest concentration in the dilution series that meets the test's criterion for growth inhibition. A high value points to a less susceptible organism. On to bacitracin-Zn, for which the MIC / resistance result in series [3] (isolate CI-2, with 25 μM ZnSO4) is on record as “fully resistant”; in [3] (isolate CI-3, with 25 μM ZnSO4), “fully resistant”; in series [3] (isolate CI-1321, with Zn) it was “partially resistance”; in series [3] (isolate CI-1323, with Zn), “resistant to bacitracin-Zn at all concentrations tested”; in series [3] (isolate CI-1324, with Zn) it was “resistant to bacitracin-Zn at all concentrations tested”. Besides, the MIC in [3] (isolate CI-4, with 25 μM ZnSO4) was 10 µM; in series [3] (isolate CI-5, with 25 μM ZnSO4), 10 µM; in series [3] (isolate CI-1320, with Zn), 2 µM; in series [3] (isolate CI-1328, with Zn), 2 µM. Besides, the “MIC of bacitracin-Zn relative to that of AVB-Zn” value in the series on USA300-LAC [4] (with 25 μM ZnSO4) was “four-fold higher”.

With `CN(C)CCOc1ccc(/C(=C(/CCCl)c2ccccc2)c2ccccc2)cc1` [toremifene citrate], the “Activity class in Zn-dependent screening” value with MRSA strain USA300-LAC is given as “Zn-activated”.

The Kd is the free concentration of one partner at which half of the binding sites on the other are occupied at equilibrium, for simple one-to-one binding. A high value points to a looser complex. On to `CC[C@H](C)[C@H](N)C1=N[C@H](C(=O)N[C@@H](CC(C)C)C(=O)N[C@H](CCC(=O)O)C(=O)N[C@H](C(=O)N[C@H]2CCCCNC(=O)[C@H](CC(N)=O)NC(=O)[C@@H](CC(=O)O)NC(=O)[C@H](Cc3cnc[nH]3)NC(=O)[C@@H](Cc3ccccc3)NC(=O)[C@H]([C@@H](C)CC)NC(=O)[C@@H](CCCN)NC2=O)[C@@H](C)CC)CS1` [Bacitracin] ({Ileψ(thiazoline)Cys}-L[dE]IK[dOrn]I[dF]H[dD]N; lactam 4-C), for which, in series [5] (setting [7]), the KA is 9299 M⁻¹ and the Kd is 108 µM. Also, in series [5] (setting [8]), the KA was 738,233 M^−1; the Kd was 1.4 µM and 1.35 µM. Moreover, in series [5] (setting [9]), the KA is 172,757 M^−1; the dissociation constant (Kd) was 5.7 µM and 5.79 µM. For the same compound, the “Antibacterial activity (MIC) without metal” value with USA300-LAC [4] is “completely inactive”. The minimum inhibitory concentration (MIC) result in the series on USA300-LAC [4] (with 25 μM CuSO4, 1×RPMI 1640, 20 h 37° C.) is recorded as “could not be activated by Cu”. In the series on USA300-LAC [6], the “Zn concentration required for full activity / MIC” value came to 10 µM. Besides, in the series with MRSA strain USA300-LAC, the “Activity class in Cu-dependent screening” value is reported as “not independent or Cu-dependent action” and the “Activity class in Zn-dependent screening” value is reported as “Zn-dependent”.

With `c1ccc(-c2ccc(C(c3ccccc3)n3ccnc3)cc2)cc1` (stereo not shown) [bifonazole], the “Activity class in Zn-dependent screening” value in the series with MRSA strain USA300-LAC is on record as “Zn-activated”.

As to `O=C(O)CN(CCN(CC(=O)O)CC(=O)O)CC(=O)O` [EDTA, 2,2′,2″,2′″-(Ethane-1,2-diyldinitrilo)tetraacetic acid], in [2], the “KD of high-affinity metal chelators” value is “picomolar to femtomolar range”.

For `COc1ccc(C(=O)CC(=O)c2ccc(C(C)(C)C)cc2)cc1` [Avobenzone, 1-(4-tert-butylphenyl)-3-(4-methoxyphenyl)propane-1,3-dione], the KA in series [5] (setting [7]) was 6900 M⁻¹; in [5] (setting [8]), 225,279 M^−1; in series [5] (setting [9]), 168,982 M^−1. Also, the Kd in [5] (setting [7]) was 115 µM; in series [5] (setting [8]), 4.43 µM; in series [5] (CuSO4, HEPES buffer pH 7.2-7.4, UV 1:1 Bindfit, listed as AVB) it was 4.4 µM; in [5] (setting [9]), 5.92 µM; in series [5] (ZnSO4, HEPES buffer pH 7.2-7.4, UV 1:1 Bindfit, listed as AVB), 5.9 µM. In the series on human cells, the Cytotoxicity result was “no relevant cytotoxicity”. In addition, the “Antibacterial activity (MIC) without metal” value in the series with USA300-LAC [4] is recorded as “no antibacterial activity”. Also, the “Zn concentration required for full activity / MIC” value in the series on USA300-LAC [6] lay within 1.25 to 10 µM. For the same compound, in the series with MRSA strain USA300-LAC, the “Activity class in Cu-dependent screening” value was “activated by both Zn and Cu”. Also, the “Activity class in Zn-dependent screening” value with MRSA strain USA300-LAC is “activated by both Zn and Cu”.
